# Measured values taken from patent US11007192B2, “Use of 5-amino-2,3-dihydro-1,4-phthalazinedione in the treatment of chronic progressive multiple sclerosis” (METRIOPHARM AG, priority 2016, dated 2021).
# Assays:
# TNFalpha = conditions: add on to standard therapy, acute phase RRMS patients; cited from earlier work
# PPMS or SPMS = conditions: five years (60 months) after start; 200 mg then 300 mg twice a day; baseline EDSS 4.0
# Experimental: EDSS determination is then performed every 6 months. […] Thus, the dosage is increased to 300 mg twice a day. […] No dosage adjustment is necessary. […] The next treatment round might vary in dosages used and duration of the treatments depending on disease progression.
# neuronal damage = conditions: low concentrations in vitro; cited from earlier work
# [1] = depending on compound, dosage and formulation; cited from earlier work
# inflammatory cytokines = conditions: mouse, in vivo
# Experimental: (§1) Form II has earlier been tested for its effects on circulating levels of TNF-alpha and IL-6 2 and 4 hours after administration of a sublethal dose of LPS in CD1 mice. Therefore, Form II was administered i.p. at the dose of 0.5, 1.5 and 15.0 mg/kg 15 minutes before LPS challenge.
# [2] = test system: adjuvant induced arthritis; conditions: rat, in vivo
# Experimental: Rats were evaluated for arthritis daily by an observer unaware of the treatment according to a macroscopic scoring system. An arthritis index was calculated for each rat by summing the scores for the individual paws.
# IL-6 = conditions: mouse, in vivo
# Experimental: as §1
# TNF-alpha = conditions: mouse, in vivo
# Experimental: as §1
structure (smiles),measurement,setting,value
"Nc1cccc2c(=O)[nH][nH]c(=O)c12.[Na] [5-amino-2,3-dihydro-1,4-phthalazinedione sodium salt]",downregulation of TNFalpha,TNFalpha,promising
same,disability progression,PPMS or SPMS,0.5 EDSS points
same,neuronal damage in neurodegenerative diseases,neuronal damage,prevent neuronal damage
"Nc1cccc2c(=O)[nH][nH]c(=O)c12 [5-amino-2,3-dihydro-1,4-phthalazinedione]",half-life,[1],several hours
"Nc1cccc2c(=O)[nH][nH]c(=O)c12.[Na] [Form I, 5-amino-2,3-dihydro-1,4-phthalazinedione sodium salt]",effective dosage confirmed,inflammatory cytokines; ip,0.5 mg/kg
same,effect when applied orally,inflammatory cytokines; po,there was an effect
same,arthritic score,[2],significantly reduced
same,most effective dose,[2],medium
same,cumulative score of the disease,"[2]; ip, 1 mg/kg",reduce significantly
"Nc1cccc2c(=O)[nH][nH]c(=O)c12.[Na] [Form II, 5-amino-2,3-dihydro-1,4-phthalazinedione sodium salt]",Downregulation of IL-6 compared to vehicle,IL-6,significant
same,Downregulation of IL-6 significant compared to vehicle,IL-6,not
same,dose with best efficacy in down-regulation of IL-6,IL-6,0.5 mg/kg
same,Downregulation of TNF-alpha compared to vehicle,TNF-alpha,significant
same,Downregulation of TNF-alpha significant compared to vehicle,TNF-alpha,not
same,dose with best efficacy in down-regulation of TNF-alpha,TNF-alpha,0.5 mg/kg
same,blood levels of inflammatory cytokines provoked by sublethal dose of LPS,inflammatory cytokines,significantly reduced
